How the values were obtained:
HSV-2 = test: Vaginal HSV-2 infection in mice, oral treatment (Table VI); type: in vivo, HSV-2; ICR/Ha mice; settings: for minimal effective dose: Human alphaherpesvirus 2, vaginal infection, oral treatment, read-out: Min. Effective Dose
HSV-1 [1] = test: Orofacial HSV-1 infection of hairless mice, oral or topical treatment (Table VI); type: in vivo, HSV-1; HRS mice; settings: for minimal effective dose: Human alphaherpesvirus 1, oral treatment, read-out: Min. Effective Dose; for minimal effective dose / Min. Effective Dose: orofacial infection; for Min. Effective Dose: topical treatment
HSV-1 WT = test: 50% plaque reduction of HSV-1 wild type in 3T3 TK- and 3T3 TK-/TK+HSV cells (Table VIII)
HSV-1 [2] = test: Intraperitoneal HSV-1 infection in mice, oral treatment (Table VI); type: in vivo, HSV-1; ICR/Ha mice; settings: for minimal effective dose: Human alphaherpesvirus 1, intraperitoneal infection, oral treatment, read-out: Min. Effective Dose
[3] = system: Herpes simplex virus type I (HSV-1), strain Schooler; test: Treatment of Herpes simplex virus infection in mice, repeat experiment (Table III); type: in vivo, HSV-1; ICR/Ha mice; settings: for Percent Survival: at 15 days
Method: Twenty gram ICR/Ha mice were injected intraperitoneally (ip) with 0.5 ml of a 10^-5 dilution of a stock preparation of Herpes simplex virus type I (HSV-1), strain Schooler. This virus challenge infected each animal with approximately 100 LD50. […] The placebo group was composed of 45 animals. All compounds were solubilized in physiological saline, pH 11.5.

Varicella-Zoster virus = test: Varicella-Zoster plaque reduction assay on human MRC-5 monolayers; type: cell-based, Varicella-Zoster (Strain KMcC); human MRC-5 cells
Text: ^b Plaque reduction assay on human MRC5 cell monolayers.

[4] = system: Herpes simplex virus type 1 (Strain S); test: Orofacial Herpes simplex virus type 1 infection in mice, therapeutic oral treatment (Table XIV); type: in vivo, Herpes simplex virus type 1; HRS (hairless) mice; settings: for Lesion Incidence (%) / Lesion Incidence (number/Total) / Lesion Severity (scale 0 to 4): 12.5 mg/kg/day oral
Method: Twenty gram HRS (hairless) mice were infected on the abraded orofacial area with Herpes simplex virus type 1 (Strain S).
a. Groups of 10 infected animals were treated twice daily by oral gavage for up to 7 days with the compound of formula II at 12.5 mg/kg/day, starting 3, 8, 12, 24, 48, 72, or 96 hours after infection. […]
At 7 days after initiation of infection, the extent of lesion development in the orofacial area was measured on a scale of 0 (no lesions) to 4 (massive lesions over the entire snout).

[5] = system: Herpes simplex virus type 2 (Strain Curtis); test: Vaginal Herpes simplex virus type 2 infection in mice, oral treatment (Table XII); type: in vivo, Herpes simplex virus type 2; ICR/Ha female mice; settings: for Percent Survival: at 19 days
Method: Groups of 10 animals were treated twice daily for ten days by oral gavage using acycloquanosine or the compound of formula II at final daily doses of 50, 12.5, 3.1, 0.8 or 0.2 mg/kg starting immediately following infection. The average number of days to infection and the average days of survival were determined for each group and compared to an infected, placebo-treated group.

Epstein-Barr virus (EBV) = test: Human cord blood lymphocyte transformation assay; type: cell-based, Epstein-Barr (B95-8); human cord blood lymphocytes; settings: human gammaherpesvirus 4, B-95-8; B95-8, lymphocyte transformation; read-out: Minimum Effective Concentration
Text: ^c Human cord blood lymphocyte transformation assay.

[6] = system: Herpes simplex virus type 1 (Strain S); test: Orofacial Herpes simplex virus type 1 infection in mice, oral treatment (Table XIII); type: in vivo, Herpes simplex virus type 1; HRS (hairless) mice; settings: for Lesion Incidence (%) / Lesion Incidence (number/Total) / Lesion Severity (scale 0 to 4): 7 days
Method: Twenty grams HRS (hairless) mice were infected on the abraded orofacial area with Herpes simplex virus type 1 (Strain S). […] At 7 days after initiation of infection, the extent of lesion development in the orofacial area was measured on a scale of 0 (no lesions) to 4 (massive lesions over the entire snout).

[7] = system: Herpes simplex virus type 1; test: Intraperitoneal Herpes simplex type 1 infection in mice, oral treatment (Table XI); type: in vivo, Herpes simplex type 1; ICR/Ha mice; settings: for Percent Survival: at 13 days
Text: ICR/Ha mice were infected as described in Example 36. […] These animals served as toxicity controls.

## Nc1nc2c(ncn2COC2COP(=O)(O)OC2)c(=O)[nH]1 (centres unmarked) [Cyclic Monophosphate, Potassium 9-(1,3-dihydroxy-2-propoxymethyl)guanine cyclic monophosphate]
HSV-2
  minimal effective dose: 0.8 mg/kg/day
HSV-2; vaginal
  efficacy relative to acyclovir by minimum effective dose: consistently more efficacious than acyclovir
HSV-1 [1]
  minimal effective dose: 3.1 mg/kg/day
  Min. Effective Dose: 0.06%
HSV-1 [1]; orofacial
  efficacy relative to acyclovir by minimum effective dose: consistently more efficacious than acyclovir
HSV-1 WT
  susceptibility of HSV-1 greater than HSV-1 (383R1): about 5 fold
HSV-1 WT; Human alphaherpesvirus 1, in Mus musculus, read-out: Antiviral Concentration, 50% plaque reduction
  EC50: 0.2 µg/mL
HSV-1 [2]
  minimal effective dose: 0.8 to 3.1 mg/kg/day
HSV-1 [2]; intraperitoneal
  efficacy relative to acyclovir by minimum effective dose: consistently more efficacious than acyclovir
HSV-1 [2]; not shown in Table VI
  antiviral efficacy in the herpes-mouse infection model relative to compound of Formula II: generally equivalent

## Nc1nc2c(ncn2COCCO)c(=O)[nH]1 [Acycloguanosine, 9-(2-hydroxyethoxymethyl)guanine, reference compound]
[3]; 12.5 mg/kg/day s.c.
  Avg. Survival Time: 7.0 days
  Percent Survival: 6%
[3]; 50 mg/kg/day s.c.
  Avg. Survival Time: 7.8 days
  Percent Survival: 0%
[3]; 100 mg/kg/day s.c.
  Avg. Survival Time: 7.8 days
  Percent Survival: 10%
Varicella-Zoster virus; Human alphaherpesvirus 3, MRC5, Strain KMcC, plaque reduction, read-out: Minimum Effective Concentration
  minimal effective concentration: 1 to 2 µg/mL
Varicella-Zoster virus; compound of formula II vs acycloguanosine
  comparative activity: equally active
[4]; start 3 hours post infection
  Lesion Incidence (%): 100%
  Lesion Incidence (number/Total): 10/10
  Lesion Severity (scale 0 to 4): 2.80
[4]; start 8 hours post infection
  Lesion Incidence (%): 100%
  Lesion Incidence (number/Total): 10/10
  Lesion Severity (scale 0 to 4): 2.95
[4]; start 12 hours post infection
  Lesion Incidence (%): 90%
  Lesion Incidence (number/Total): 9/10
  Lesion Severity (scale 0 to 4): 3.30
[4]; start 24 hours post infection
  Lesion Incidence (%): 90%
  Lesion Incidence (number/Total): 9/10
  Lesion Severity (scale 0 to 4): 2.85
[4]; start 48 hours post infection
  Lesion Incidence (%): 80%
  Lesion Incidence (number/Total): 8/10
  Lesion Severity (scale 0 to 4): 2.85
[4]; start 72 hours post infection
  Lesion Incidence (%): 90%
  Lesion Incidence (number/Total): 9/10
  Lesion Severity (scale 0 to 4): 3.60
[4]; start 96 hours post infection
  Lesion Incidence (%): 100%
  Lesion Incidence (number/Total): 7/7
  Lesion Severity (scale 0 to 4): 4.00
[4]; all start times
  incidence of lesions vs placebo: None of the acycloguanosine treated groups had a significantly lower incidence of lesions
[4]; only start 3 hours after infection
  lesion scores vs placebo: statistically different in lesion score
HSV-2
  minimal effective dose: 12.5 to 50 mg/kg/day
[5]; 0.2 mg/kg/day oral
  Avg. Survival Time: 8.8 days
  Percent Survival: 0%
[5]; 0.8 mg/kg/day oral
  Percent Survival: 10%
[5]; 3.1 mg/kg/day oral
  Percent Survival: 20%
[5]; 12.5 mg/kg/day oral
  Avg. Survival Time: 14.1 days
  Percent Survival: 40%
[5]; 50 mg/kg and 12.5 mg/kg
  number of days to infection vs placebo: statistically significant increases in the number of days to infection
[5]; 50 mg/kg/day oral
  Avg. Survival Time: 17.6 days
  Percent Survival: 60%
[5]; 50 and 12.5 mg/kg
  survival time vs placebo: similarly effective
[5]; only 50 mg/kg
  survival vs placebo: statistically significant enhanced survival
HSV-1 [1]
  minimal effective dose: 12.5 mg/kg/day
  Min. Effective Dose: 0.25-1.0%
Epstein-Barr virus (EBV)
  minimal effective concentration: 10 to 100 µg/mL
HSV-1 [2]
  minimal effective dose: 12.5 to 50 mg/kg/day
[6]; 0.8 mg/kg/day oral
  Lesion Incidence (%): 88%
  Lesion Incidence (number/Total): 7/8
  Lesion Severity (scale 0 to 4): 3.11
[6]; 3.1 mg/kg/day oral
  Lesion Incidence (%): 100%
  Lesion Incidence (number/Total): 6/6
  Lesion Severity (scale 0 to 4): 3.25
[6]; 12.5 mg/kg/day oral
  Lesion Incidence (%): 100%
  Lesion Incidence (number/Total): 6/6
  Lesion Severity (scale 0 to 4): 2.67
[6]; 50 mg/kg/day oral
  Lesion Incidence (%): 14%
  Lesion Incidence (number/Total): 1/7
[6]; only at 50 mg/kg
  incidence of lesions vs placebo: statistically significant protection
[6]; only at 50 and 12.5 mg/kg
  extent of lesion development vs placebo: statistically significant protection
[7]; 3.1 mg/kg/day oral
  Avg. Survival Time: 6.3 days
  Percent Survival: 0%
[7]; 12.5 mg/kg/day oral
  Avg. Survival Time: 6.6 days
  Percent Survival: 0%
[7]; 50 mg/kg/day oral
  Avg. Survival Time: 8.2 days
  Percent Survival: 20%
[7]; 100 mg/kg/day oral
  Avg. Survival Time: 11.4 days
  Percent Survival: 60%
[7]; all treated groups
  survival vs placebo: none of the acycloquanosine-treated groups showed enhanced survival
[7]; only at 100 and 50 mg/kg daily
  extension of survival time vs placebo: statistically significant extension of survival time

— patent publication US4816447A, “Anti-viral guanine compounds” (priority 1984, dated 1989)
